In EPA's ToxValDB 9.5:
Where “and” joins values, the source holds several entries; their conditions need not be identical. Equal values may be shown once.

What was measured:
[1] = system: Rattus norvegicus; conditions: for LOEL / NOEL: Hershberger; for LEL: uterotrophic, Active
[2] = system: Rattus norvegicus; conditions: for LD50 / NOAEL: oral
[3] = system: Oryctolagus sp.; conditions: acute
[4] = system: Mus musculus; conditions: chronic; duration: 50 weeks; oral; drinking water; F; Swiss; body weight
[5] = system: Rattus norvegicus; conditions: subchronic; duration: 13 weeks; oral; diet; F; Fischer 344; Body Weight Changes: decrease + Histopathology: Bone marrow-Reticulum-cell hyperplasia Bone marrow-Myeloid depletion
[6] = duration: 12 days, injection, subcutaneous, Wistar, active + Androgenic + androgenic
[7] = duration: 10 days, oral, gavage, Sprague-Dawley, active + Antiandrogenic + anti-androgenic
[8] = duration: 10 days, oral, gavage, Sprague-Dawley, inactive + Negative + Negative + neither + negative

Q: What does the source list for `C[C@]12C=CC(=O)C[C@@H]1CC[C@@H]1[C@@H]2CC[C@@]2(C)[C@H]1CC[C@]2(C)O` [Methyl-1-testosterone]?
A: LOEL ([1]; duration: 10 days, injection, subcutaneous, Wistar, active + Androgenic + androgenic): 1 mg/kg-day; LOEL [1, 6]: 0.3 mg/kg-day; NOEL [1, 6]: 0.03 mg/kg-day

Q: For `C[C@H]1CCC[C@@H](O)CCC/C=C/c2cc(O)cc(O)c2C(=O)O1` [beta-Zearalenol], which LEL ([1]; duration: 3 days, oral) is on record?
A: Its LEL is 0.8 mg/day.

Q: How did the LD50 ([2]; acute, gavage, Sprague-Dawley) turn out when `CCCC[N+](CC)(CCCC)CCCCCC[N+](CC)(CCCC)CCCC.[OH-].[OH-]` was run?
A: The LD50 was 350 mg/kg.

Q: And the LD50 ([3]; dermal, New Zealand)?
A: The LD50 was 22.4 mg/kg.

Q: `O=P(OC(CCl)CCl)(OC(CCl)CCl)OC(CCl)CCl` [Tris(1,3-dichloro-2-propyl) phosphate] was tested. Which LD50 ([2]; acute, gavage, Sprague-Dawley) did it give?
A: The LD50 was 3160 mg/kg.

Q: What about the NOAEL ([2]; chronic, duration: 12 months, diet, Sprague-Dawley) of the same compound?
A: Its NOAEL is 5 mg/kg-day.

Q: And the NOAEL ([2]; developmental, duration: 10 days, gavage, Sprague-Dawley)?
A: Its NOAEL is 100 mg/kg-day.

Q: What about the NOAEL ([2]; reproduction developmental, duration: 10 days, gavage, F, Sprague-Dawley) of the same compound?
A: The NOAEL was 25 mg/kg-day.

Q: And the LD50 ([3]; dermal)?
A: Its LD50 is over 4640 mg/kg.

Q: And the LD50 ([3]; oral, gavage, Dutch-belted)?
A: The LD50 was 6800 mg/kg.

Q: How did the LC50 ([2]; acute, Inhalation, Wistar) turn out when `CCCCCCCCCc1cc2ccccc2c(S(=O)(=O)O)c1CCCCCCCCC` [Dinonylnaphthalenesulfonic acid] was run?
A: The LC50 was over 200 µg/mL.

Q: What about the LD50 ([2]; acute, gavage, Sprague-Dawley) of the same compound?
A: Its LD50 is over 5000 mg/kg.

Q: What about the LD50 ([3]; dermal, New Zealand) of the same compound?
A: Its LD50 is over 2000 mg/kg.

Q: What does the source list for `CCCCCCCCc1ccc(O)cc1` [4-Octylphenol]?
A: LEL ([1]; duration: 4 days, oral): 100 mg/kg-day; LD50 ([2]; acute, gavage, albino): 1100 mg/kg and 1200 mg/kg and 1400 mg/kg

Q: For `C[C@H]1CCC[C@@H](O)CCCCCc2cc(O)cc(O)c2C(=O)O1` [Taleranol], which LEL ([1]; duration: 3 days, oral) is on record?
A: The LEL was 0.06 mg/day.

Q: How did the LOAEL [4] turn out when `O=[N+]([O-])c1ccc(O)c([N+](=O)[O-])c1` [2,4-Dinitrophenol] was run?
A: The LOAEL was 0.07 mg/kg-day.

Q: How did the LOEL [1, 7] turn out when `CC#C[C@]1(O)CC[C@H]2[C@@H]3CCC4=CC(=O)CCC4=C3[C@@H](c3ccc(N(C)C)cc3)C[C@@]21C` [Mifepristone] was run?
A: The LOEL was 25 mg/kg-day.

Q: What about the NOEL [1, 7] of the same compound?
A: Its NOEL is 10 mg/kg-day.

Q: What about the LEL ([1]; duration: 4 days, injection, intraperitoneal) of the same compound?
A: The LEL was 100 mg/kg-day.

Q: Which NOEL ([1]; duration: 10 days, oral, gavage, Wistar, inactive + Negative + Negative + Neither + effects on fertility, reduced testis/epididymal wt and abnormal histo in P0, fertility) does the source give for `COC(=O)Nc1nc2ccccc2[nH]1` [Carbendazim] here?
A: The NOEL was 100 mg/kg-day.

Q: And the LD50 ([2]; acute, gavage, Harlan Sprague Dawley)?
A: Its LD50 is over 5050 mg/kg.

Q: For `CC(C)CCCCCCCOP(=S)([S-])OCCCCCCCC(C)C.CC(C)CCCCCCCOP(=S)([S-])OCCCCCCCC(C)C.[Zn+2]`, which LD50 ([3]; dermal, New Zealand) is on record?
A: Its LD50 is over 8000 mg/kg.

Q: With `O=C1O[C@H]([C@@H](O)CO)C(O)=C1O` [L-Ascorbic acid] as the compound, how does the NOEL [5] read?
A: The NOEL was under 2400 mg/kg-day.

Q: What about the LEL ([1]; duration: 20 days, injection, subcutaneous) of the same compound?
A: Its LEL is 25 mg/kg-day.

Q: With `CCCCC(CC)CN1C(=O)C2C3C=CC(C3)C2C1=O` (configuration not stated) [Octylbicycloheptenedicarboximide] as the compound, how does the NOEL [1, 8] read?
A: Its NOEL is 700 mg/kg-day.

Q: For `CCCSP(=O)(OCC)SCCC` [Ethoprop], which NOEL ([1]; duration: 10 days, oral, gavage, Sprague-Dawley, active + Negative + Antiandrogenic + anti-androgenic + decrease in serum testosterone, decrease in epididymal wt at 6 mg/kg / thyroid …) is on record?
A: Its NOEL is 8 mg/kg-day.

Q: `Oc1ccccc1-c1ccccc1` [2-Phenylphenol] was tested. Which NOEL ([1]; duration: 10 days, oral, gavage, Sprague-Dawley, inactive + Negative + Negative + anti-androgenic + decrease in ASTs, NS (1.6 d) delay PPS / accompanied by "minor" increase in liver wt and…) did it give?
A: Its NOEL is 250 mg/kg-day.

Q: How did the LEL ([1]; duration: 1 days, injection, subcutaneous) turn out when `Cc1c2ccccc2c(C)c2c1ccc1ccccc12` [7,12-Dimethylbenz(a)anthracene] was run?
A: Its LEL is 15 mg/kg-day.

Q: How did the NOEL ([1]; duration: 10 days, oral, gavage, Wistar, inactive + Negative + Negative + anti-androgenic + negative on gonad/AST / significant thyroid effects beginning at 25 / increased SV wt …) turn out when `Nc1ncn[nH]1` [Amitrole] was run?
A: The NOEL was 125 mg/kg-day.

Q: Which LEL ([1]; duration: 3 days, oral) does the source give for `CCOC(=O)C(C)(C)Oc1ccc(Cl)cc1` [Clofibrate] here?
A: Its LEL is 4 mg/kg-day.

Q: How did the LOEL ([1]; duration: 10 days, oral, gavage, Sprague-Dawley, active + Androgenic + Negative + androgenic) turn out when `CCCCCCC(=O)O[C@H]1CC[C@H]2[C@@H]3CCC4=CC(=O)CC[C@]4(C)[C@H]3CC[C@]12C` [Testosterone enanthate] was run?
A: The LOEL was 50 mg/kg-day.

Q: With `CC[C@H](C)[C@H]1O[C@]2(C=C[C@@H]1C)C[C@@H]1C[C@@H](C/C=C(\C)[C@@H](O[C@H]3C[C@H](OC)[C@@H](O[C@H]4C[C@H](OC)[C@@H](O)[C@H](C)O4)[C@H](C)O3)[C@@H](C)/C=C/C=C3\CO[C@@H]4[C@H](O)C(C)=C[C@@H](C(=O)O1)[C@]34O)O2.CO[C@H]1C[C@H](O[C@H]2[C@H](C)O[C@@H](O[C@@H]3/C(C)=C/C[C@@H]4C[C@@H](C[C@]5(C=C[C@H](C)[C@@H](C(C)C)O5)O4)OC(=O)[C@@H]4C=C(C)[C@@H](O)[C@H]5OC/C(=C\C=C\[C@@H]3C)[C@]54O)C[C@@H]2OC)O[C@@H](C)[C@@H]1O` [Abamectin] as the compound, how does the NOEL ([1]; duration: 10 days, oral, gavage, Sprague-Dawley, inactive + Negative + Negative + anti-androgenic + negative) read?
A: The NOEL was 1.5 mg/kg-day.

Q: How did the NOEL [1, 8] turn out when `CC(C)[C@H](C(=O)O[C@H](C#N)c1cccc(Oc2ccccc2)c1)c1ccc(Cl)cc1` [Esfenvalerate] was run?
A: Its NOEL is 9 mg/kg-day.

Q: How did the LEL ([1]; duration: 3 days, injection, subcutaneous) turn out when `CCCCC(CC)COC(=O)c1ccc(O)cc1` (configuration not stated) [2-Ethylhexyl p-hydroxybenzoate] was run?
A: Its LEL is 200 mg/kg-day and 199 mg/kg-day.
